From patent US6482436B1, “Magnetically responsive composition” (FeRx Incorporated, priority 1993, dated 2002)
Converted amounts (≈) assume the structure as drawn.

Experiments:
[1] = Octanol/buffer (pH 7.4) partition coefficient; assay type: physicochemical
Text: (§1) Certain porphyrins are photosensitizing compounds useful in photodynamic therapy against tumors. […] Several classes of photosensitizers were screened for comparative binding to iron:carbon particles of various composition. The wavelength near the activation wavelength (often the λmax) of a particular photosensitizer was used for quantitative drug measurements. […] The photosensitizers tested were hematoporphyrin derivative (HPD); benzoporphyrin derivative monoacid A (BPD-ma); Photofrin® porfimer sodium (PF2); and clorin e6. For the binding studies, 10 mg of carbon or 50 mg of iron:carbon particles were optimum. An octanol/buffer (pH 7.4) partition coefficient for the four compounds was as follows: HPD=1; chlorin e6=1.1; PF2=0.1≧; and BPD-ma=4000>.

[2] = Comparative binding of photosensitizers to iron:carbon particles; assay type: physicochemical; conditions: 80 mcg/ml (0.11 mM) in PBS pH 7.4, 50 mg particles
Text: as §1

[3] = Adsorption curves and adsorption constants of pharmaceutical agents on iron:carbon carrier particles; assay type: physicochemical
Experimental: Adsorption upon the particles of various types of pharmaceutical agents at a range of concentrations of the pharmaceutical agent in the absorption solution was performed to determine the absorption curves and absorption constants for each compound as follows: A 16-mer anti-C-Myc oligonucleotide useful in antisense gene-directed therapy is an all phosphorothioate oligodeoxynucleotide, fluorescein-labeled at 5′ end (Macromolecular Resources, Fort Collins, Colo.). […] Unbound drug in adsorption supernatants was determined from the fluorescein fluorescence (Exc. 495 nm, em. 549 nm) using a standard curve. Hematoporphyrin dihydrochloride (Sigma Chemical, USA, H-1875, Lot #23H0879) is a photosensitizer useful in tumor therapy. The compound accumulates by biological processes in certain types of tumor tissue. Upon exposure to light, such as provided by a laser, the compound undergoes a chemical transformation to produce oxygen singlets that are toxic to cells in which it has accumulated. A stock adsorption solution was prepared and drug concentration was determined by spectrophotometry according to G. Garbo et al. Anal. […] The adsorption equation determined by computer analysis using commercially available software was: […] 6-Mercaptopurine sodium salt (provided by Dr. Gruber, Burroughs Wellcome, Lot #7P2774) is an anti-inflammatory agent. […] Drug concentration in adsorption supernatants was determined by spectrophotometry (standard curve: […] Drug concentrations in adsorption supernatants determined by spectrophotometry yielded the following equation for the concentration curve: […] Drug concentration in adsorption supernatants as determined by spectrophotometry yield the following equation for the concentration curve: […] Concentration was determined by absorbance at 253 nm (λmax=253 nm in saline solution).

[4] = Effect of adsorption medium composition on Dox binding to carrier particles; assay type: physicochemical; conditions: six test adsorption media; particles first in viscosity agent, Dox/saline added later
Experimental: Additional studies were conducted to compare the effect of the composition of the adsorption solution on the binding of the Dox to carrier particles having an iron:carbon ratio in the range 60:40 to 80:20. The following six test adsorption media compositions were formulated to provide sufficient viscosity to keep the carrier particles physically separate during adsorption of the Dox. The particles were first placed in the viscosity agent and the Dox/saline solution was later added.
1. 10% mannitol; 2% sodium carboxymethyl cellulose (CMC) (medium viscosity); 2% polyvinyl pyrrolidone (PVP in 50 mM citrate phosphate buffer
2. 5% mannitol; 2% CMC; 2% PVP in 50 mM citrate phosphate buffer.
3. 5% mannitol; 2% CMC; 2% PVP; 5% sorbitol in 50 mM citrate phosphate buffer.
4. 10% mannitol; 1% CMC; 2% PVP (K15) in 10 mM potassium phosphate buffer (pH 7.4).
5. 10% mannitol; 1% sodium CMC; potassium phosphate buffer (pH 7.4).
6. 5% sorbitol; 1% sodium CMC; 2% PVP (K1 5); 5% mannitol; in potassium phosphate buffer (pH 7.4)

[5] = test system: human squamous carcinoma cell line, SCC-9; assay: Long-term CF clonogenic assay; assay type: cell-based; conditions: colonies after 2-3 weeks
Experimental: A separate long-term CF clonogenic assay was evaluated concurrently. In this assay, cells were plated on 35 mm petri dishes and exposed to drug and controls as outlined above. Treated cells were incubated for 2-3 weeks to allow time for colonies to establish. These colonies were fixed in 2% acetic acid and 8% ethanol and stained with crystal violet. The colonies were counted under a Bella Glass Plate Reader.

tumor cells in culture = assay: In vitro cytotoxicity evaluation with magnetic field retention of carrier particles; assay type: cell-based; conditions: Homo sapiens; released paclitaxel: with or without magnet
Experimental: The IC50 for free paclitaxel alone was identical (5 ng/mL) to paclitaxel released from the carrier particles with or without magnet (5 ng/mL).

[6] = Re binding to a series of carbons (colorimetric Re assay); assay type: physicochemical; conditions: ambient temperature
Experimental: (§2) An adaptation of a colorimetric Re assay used in the field of metallurgy was used to determine the adsorption of the Re onto carrier particles having a 70:30 iron:carbon ratio. In brief, a 0.1 to 0.5 ml sample was placed in a solution containing 1.0 ml of HCl, 1.3 ml of −α furildoxime (6% in acetone), 0.5 ml of 10% stannous chloride and sufficient water to make 5.0 ml. The mixture was heated to 45° C. for 20 minutes and allowed to cool to room temperature. The absorbance of Re in the solution was measured at 532 nm. The sensitivity of the assay was to about 5 mcg Re. […] As with other drugs, the % binding of Re in the adsorption medium decreases as the Re to carbon ratio increases. […] Release over 24 hours of the Re into physiological saline at ambient temperature from the various carbons preloaded with adsorbed Re was 50% by weight.

[7] = Release of adsorbed Re into saline over 24 hours; assay type: physicochemical
Experimental: as §2
Less than 10% of the Re was released upon incubation under efflux conditions in saline over 24 hours. The low binding of Re to the carrier particles is consistent with the low binding of other charged, small ionic molecules to activated carbon as compared with the high affinity binding of hydrophobic aromatic molecules. These findings are consistent with use of the carrier particles of the invention with adsorbed Re or Tc as imaging and therapeutic agents.

[8] = Binding and release of BPD-ma with prototype iron:carbon carrier particles (MTCs); assay type: physicochemical; conditions: from a 10-fold increase in the initial concentration of the drug; isopropanol medium, 18 hours
Experimental: In order to achieve higher loading levels of BPD-ma, the binding capacity and fractional binding of the drug to four prototype iron:carbon carrier particles (MTCs, or, magnetic targeted compounds) was tested using 1.4 mM drug in isopropanol (with 0.5% 0.02 M acetic acid) as the adsorption medium and a longer equilibration period of 18 hours.

[9] = test system: carcinosarcoma Walker 256; assay: Treatment of Walker 256 carcinosarcoma under the tail skin of rats: life span and tumor dissolution; assay type: in vivo, rats of the Wistar Line; conditions: group II; water solution i.v. 2 mg/kg during 5 days; versus control group I (21±1.5 days); P<0.05
Experimental: Tests were carried out on male rats of the Wistar Line (bred at Stolbovaya Station of the USSR Academy of Medical Sciences). The rats were infused with carcinosarcoma Walker 256 under the tail skin. When the tumorous volume averaged 986±98 mm^3 the animals were divided into 4 groups, 10 rats in each. The first group (group I) was a control group, and groups II through IV were experimental groups.
The animals in group II were given intravenous injections of a water solution of rubomicine in the amount of 2 mg/kg of body weight during 5 days (the model of traditional use of such anti-cancerous preparations in clinics). The rats in group III were injected with a suspension of ferrocarbon dispersion produced by the previously known method described in European Patent Office Publication No. 0 451 299 A1. The particles comprised iron/carbon in a volume percent ratio of 60:40. The dosage of ferrocarbon particles was 160 mg/kg of body weight, and the dosage of adsorbed rubomicine thereon was 3.2 mg/g of particles. This suspension was injected into the tail vein after placing on the surface of the tumor a permanent magnet with a magnetic field intensity of 6000 oersteds. Localization of the suspension in the tumorous growth zone under control of the externally placed magnetic field was monitored by x-ray pictures. […]

[10] = 80:20 Type K, 0.9% NaCl, pH 10.4, equilibration 2 hrs
[11] = 75:25 Type K, Saline solution, equilibration 0.5 hr

Compound	octanol/buffer partition coefficient [1]	% binding, % ([2]; iron:carbon 30:70 Type A)	% binding, mg/mg % ([2]; iron:carbon 30:70 Type A)	% binding, % ([2]; iron:carbon 30:70 Type E)	% binding, mg/mg % ([2]; iron:carbon 30:70 Type E)	other results
clorin e6	1.1	69.9%	0.8 mg/mg %	68.8%	0.7 mg/mg %	–
Sc1ncnc2nc[nH]c12.[Na] [6-MP Mercaptopurine, 6-Mercaptopurine sodium salt]	–	–	–	–	–	Adsorption constant [3, 10]: 0.24 ± 0.064 (mg/ml)^−1; Maximum adsorption (% of carrier weight) [3, 10]: 11.0 ± 0.97 % of carrier weight
COc1cccc2c1C(=O)c1c(O)c3c(c(O)c1C2=O)C[C@@](O)(C(=O)CO)C[C@@H]3O[C@H]1C[C@H](N)[C@H](O)[C@H](C)O1 [doxorubicin]	–	–	–	–	–	adsorption of Dox to the carrier particles by adsorption medium [4]: highest adsorption of Dox to the carrier particles was obtained using formulae 4, 5, and 6
CC(=O)O[C@H]1C(=O)[C@@]2(C)[C@H]([C@H](OC(=O)c3ccccc3)[C@]3(O)C[C@H](OC(=O)[C@H](O)[C@@H](NC(=O)c4ccccc4)c4ccccc4)C(C)=C1C3(C)C)[C@]1(OC(C)=O)CO[C@@H]1C[C@@H]2O [paclitaxel]	–	–	–	–	–	IC50 [5]: 3 ng/mL (≈ 3.51 nM); IC50 (tumor cells in culture): 5 ng/mL (≈ 5.86 nM)
Photofrin® porfimer sodium [PF2]	≤ 0.1	11.4%	0.13 mg/mg %	7.2%	0.08 mg/mg %	–
hematoporphyrin derivative [HPD]	1	41.9%	0.5 mg/mg %	37.0%	0.4 mg/mg %	–
[Re] [Re, rhenium]	–	–	–	–	–	Re binding to a series of carbons ([6]; 30 mg carbon in the adsorption medium): about 35%; Re binding to a series of carbons ([6]; 180 mg carbon in the adsorption medium): about 90%; Re released over 24 hours ([7]; from iron:carbon carrier particles, efflux conditions in saline): Less than 10%; release of Re over 24 hours ([7]; from the various carbons preloaded with Re, physiological saline, ambient temperature): 50 % by weight
CC[C@@]1(O)C(=O)OCc2c1cc1n(c2=O)Cc2cc3ccccc3nc2-1 [Camptothecin]	–	–	–	–	–	Adsorption constant [3, 11]: 521 (mg/ml)^−1; Maximum adsorption (% of carrier weight) [3, 11]: 11 % of carrier weight; Maximum adsorption (% of carrier weight) ([3]; 80:20 Type K, C/E 1:1 (chloroform:ethanol), equilibration 3 hrs, footnote: Below detection limit): 0^2 % of carrier weight
benzoporphyrin derivative monoacid A [BPD-ma]	> 4000	30.1%	0.33 mg/mg %	23.0%	0.25 mg/mg %	increase in binding capacity [8]: 30 fold
COc1cccc2c1C(=O)c1c(O)c3c(c(O)c1C2=O)C[C@@](O)(C(C)=O)C[C@@H]3O[C@H]1C[C@H](N)[C@H](O)[C@H](C)O1 [rubomicine]	–	–	–	–	–	life span following treatment increased by an average of [9]: 4.5 days
C[C@@H]1[C@H](O)[C@@H](C)/C=C/C=C/C=C/C=C/C=C/C=C/C=C/[C@H](O[C@@H]2O[C@H](C)[C@@H](O)[C@H](N)[C@@H]2O)C[C@@H]2O[C@](O)(C[C@@H](O)C[C@@H](O)[C@H](O)CC[C@@H](O)C[C@@H](O)CC(=O)O[C@H]1C)C[C@H](O)[C@H]2C(=O)O [Amphotericin B]	–	–	–	–	–	Maximum adsorption (% of carrier weight) ([3]; 80:20 Type K, 0.9% NaCl pH 12 (KOH), equilibration 24 hrs): 10.4 ± 0.55 % of carrier weight
